Here are results for 20 molecules from patent publication US11739100B2, “2,3-dihydro-1h-imidazo{1,2-a}pyrimidin-5-one and this 1,2,3,4-tetrahydropyrimido{1,2-a}pyrimidin-6-one derivatives comprising a substituted morpholine, preparation thereof and pharmaceutical use thereof” (SANOFI, priority 2012, dated 2023).

The test addresses T1, recombinant Vps34 (Homo sapiens, UniProt Q8NEB9).
T1 construct: purchased Invitrogen PV5126
The experiment in a line: Phosphorylation of phosphatidylinositol (PI) by Vps34 in vitro, ADP detected by TR-FRET (HTRF Transcreener ADP). Conditions: 10 μM ATP, 55 μg/ml PI, approximately 3 nM Vps34, 1 hour at ambient temperature; absolute IC50, mean of two independent experiments; read-out: IC50 activity range. It counts as biochemical.

pIC50: −log10 of the molar value.

T1 sequence (Q8NEB9 whole entry): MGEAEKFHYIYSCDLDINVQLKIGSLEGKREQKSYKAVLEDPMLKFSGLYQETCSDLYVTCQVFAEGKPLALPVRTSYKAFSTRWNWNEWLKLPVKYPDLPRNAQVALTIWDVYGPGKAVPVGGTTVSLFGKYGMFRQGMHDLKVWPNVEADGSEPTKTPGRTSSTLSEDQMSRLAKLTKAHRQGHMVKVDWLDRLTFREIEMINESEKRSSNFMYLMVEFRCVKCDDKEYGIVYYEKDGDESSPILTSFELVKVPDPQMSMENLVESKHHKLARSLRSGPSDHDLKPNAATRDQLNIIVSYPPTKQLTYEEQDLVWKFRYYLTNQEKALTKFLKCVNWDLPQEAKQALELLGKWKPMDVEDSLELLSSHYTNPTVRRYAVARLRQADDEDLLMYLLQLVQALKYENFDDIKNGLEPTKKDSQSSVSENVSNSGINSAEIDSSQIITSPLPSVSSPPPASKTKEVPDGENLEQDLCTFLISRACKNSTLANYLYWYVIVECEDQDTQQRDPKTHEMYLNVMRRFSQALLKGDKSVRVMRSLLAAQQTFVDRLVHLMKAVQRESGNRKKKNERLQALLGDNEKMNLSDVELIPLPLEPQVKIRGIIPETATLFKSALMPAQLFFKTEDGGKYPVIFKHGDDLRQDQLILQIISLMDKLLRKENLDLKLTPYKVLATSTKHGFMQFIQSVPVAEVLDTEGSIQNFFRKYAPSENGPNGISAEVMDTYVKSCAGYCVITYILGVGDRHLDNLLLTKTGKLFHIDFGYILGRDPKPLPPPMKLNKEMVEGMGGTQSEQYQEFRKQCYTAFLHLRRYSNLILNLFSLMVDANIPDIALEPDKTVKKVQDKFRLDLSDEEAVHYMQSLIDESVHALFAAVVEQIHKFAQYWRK

The pIC50 is the negative decadic logarithm of the IC50, by convention in mol/L. Consider `C[C@@H]1COCCN1c1cc(=O)n2c(n1)N(Cc1noc(C(C)(C)C)n1)[C@H](C(F)(F)F)CC2` [Example 203, (S)-9-(5-tert-Butyl-[1,2,4]oxadiazol-3-yl-methyl)-2-((R)-3-methylmorpholin-4-yl)-8-trifluoromethyl-6,7,8,9-tetrahydro-pyrimido[1,2-a]-pyrimidin-4-one], for which the negative-log IC50 (pIC50) is more than 8.00.

As to `C[C@@H]1COCCN1c1nc2n(c(=O)c1F)CC[C@@H](C(F)(F)F)N2CCO` [Example 204, (S)-3-Fluoro-9-(2-hydroxyethyl)-2-((R)-3-methylmorpholin-4-yl)-8-trifluoromethyl-6,7,8,9-tetrahydro-pyrimido[1,2-a]-pyrimidin-4-one], the negative-log IC50 (pIC50) was more than 8.00.

In the case of `C[C@H](O)CN1c2nc(N3CCOC[C@H]3C)cc(=O)n2CC[C@H]1C(F)(F)F` [Example 205, (S)-9-((S)-2-Hydroxy-propyl)-2-((R)-3-methylmorpholin-4-yl)-8-trifluoromethyl-6,7,8,9-tetrahydro-pyrimido[1,2-a]-pyrimidin-4-one], the pIC50 was more than 8.00.

On to `CO[C@H](CN1c2nc(N3C[C@H]4CC[C@@H](C3)O4)cc(=O)n2CC[C@H]1C(F)(F)F)c1ccccc1` [Example 206, (S)-9-((S)-2-Methoxy-2-phenylethyl)-2-(1R,5S)-8-oxa-3-aza-bicyclo[3.2.1]oct-3-yl-8-trifluoromethyl-6,7,8,9-tetrahydro-pyrimido[1,2-a]-pyrimidin-4-one], for which the pIC50 is more than 8.00.

Turning to `Cc1noc(CN2c3nc(N4CCOC[C@H]4C)c(F)c(=O)n3C[C@@]2(C)C(F)(F)F)n1` [Example 207, (S)-6-Fluoro-2-methyl-7-((R)-3-methyl-morpholin-4-yl)-1-(3-methyl-[1,2,4]oxadiazol-5-yl-methyl)-2-trifluoromethyl-2,3-dihydro-1H-imidazo[1,2-a]-pyrimidin-5-one], the pIC50 was more than 8.00.

Consider `Cc1noc(CN2c3nc(N4CCOC[C@H]4C)cc(=O)n3C[C@@]2(C)C(F)(F)F)n1` [Example 208, (S)-2-Methyl-7-((R)-3-methylmorpholin-4-yl)-1-(3-methyl-[1,2,4]oxadiazol-5-yl-methyl)-2-trifluoromethyl-2,3-dihydro-1H-imidazo[1,2-a]-pyrimidin-5-one], for which the pIC50 was 7.00 to 8.00.

Consider `Cc1nc(CN2c3nc(N4CCOC[C@H]4C)cc(=O)n3CC[C@@]2(C)C(F)(F)F)no1` [Example 211, (S)-8-Methyl-2-((R)-3-methylmorpholin-4-yl)-9-(5-methyl-[1,2,4]oxadiazol-3-yl-methyl)-8-trifluoromethyl-6,7,8,9-tetrahydro-pyrimido[1,2-a]-pyrimidin-4-one], for which the pIC50 was more than 8.00.

For `C[C@@H]1COCCN1c1cc(=O)n2c(n1)N(CC(O)c1ccccn1)[C@H](C(F)(F)F)CC2` (stereo partly drawn) [Example 213, (S)-9-(2-Hydroxy-2-pyridin-2-ylethyl)-2-((R)-3-methyl-morpholin-4-yl)-8-trifluoromethyl-6,7,8,9-tetrahydro-pyrimido[1,2-a]-pyrimidin-4-one], the pIC50 was more than 8.00.

As for `C[C@@H]1COCCN1c1cc(=O)n2c(n1)N(Cc1ccnn1C(F)F)[C@](C)(C(F)(F)F)CC2` [Example 214, (S)-9-(2-Difluoromethyl-2H-pyrazol-3-ylmethyl)-8-methyl-2-((R)-3-methylmorpholin-4-yl)-8-trifluoromethyl-6,7,8,9-tetrahydro-pyrimido[1,2-a]-pyrimidin-4-one], the pIC50 is more than 8.00.

As to `C[C@@H]1COCCN1c1cc(=O)n2c(n1)N(Cc1ccon1)[C@](C)(C(F)(F)F)CC2` [Example 215, (S)-9-Isoxazol-3-yl-methyl-8-methyl-2-((R)-3-methyl-morpholin-4-yl)-8-trifluoromethyl-6,7,8,9-tetrahydro-pyrimido[1,2-a]-pyrimidin-4-one], the pIC50 is more than 8.00.

Take `C[C@@H]1COCCN1c1cc(=O)n2c(n1)N(Cc1ccncc1)[C@H](C(F)(F)F)CC2` [Example 216, (S)-2-((R)-3-Methyl-morpholin-4-yl)-9-pyridin-4-ylmethyl-8-trifluoromethyl-6,7,8,9-tetrahydro-pyrimido[1,2-a]-pyrimidin-4-one]: the negative-log IC50 (pIC50) is 7.00 to 8.00.

For the molecule `C[C@@H]1COCCN1c1cc(=O)n2c(n1)N(Cc1cccnc1)[C@H](C(F)(F)F)CC2` [Example 217, (S)-2-((R)-3-Methyl-morpholin-4-yl)-9-pyridin-3-ylmethyl-8-trifluoromethyl-6,7,8,9-tetrahydro-pyrimido[1,2-a]-pyrimidin-4-one], the pIC50 was more than 8.00.

In the case of `C[C@@H]1COCCN1c1cc(=O)n2c(n1)N(Cc1ccccn1)[C@H](C(F)(F)F)CC2` [Example 218, (S)-2-((R)-3-Methyl-morpholin-4-yl)-9-pyridin-2-ylmethyl-8-trifluoromethyl-6,7,8,9-tetrahydro-pyrimido[1,2-a]-pyrimidin-4-one], the negative-log IC50 (pIC50) was more than 8.00.

On to `C[C@@H]1COCCN1c1cc(=O)n2c(n1)N(CCc1ccc(F)cc1)[C@H](C(F)(F)F)CC2` [Example 219, (S)-9-[2-(4-Fluoro-phenyl)ethyl]-2-((R)-3-methylmorpholin-4-yl)-8-trifluoromethyl-6,7,8,9-tetrahydro-pyrimido[1,2-a]-pyrimidin-4-one], for which the negative logarithm of the IC50 (pIC50) was more than 8.00.

With `C[C@@H]1COCCN1c1cc(=O)n2c(n1)N(CCc1ccccn1)[C@H](C(F)(F)F)CC2` [Example 220, (S)-2-((R)-3-Methyl-morpholin-4-yl)-9-(2-pyridin-2-ylethyl)-8-trifluoromethyl-6,7,8,9-tetrahydro-pyrimido[1,2-a]-pyrimidin-4-one], the negative-log IC50 (pIC50) was more than 8.00.

`C[C@@H]1COCCN1c1cc(=O)n2c(n1)N(Cc1cccnc1F)[C@H](C(F)(F)F)CC2` [Example 221, (S)-9-(2-Fluoropyridin-3-ylmethyl)-2-((R)-3-methylmorpholin-4-yl)-8-trifluoromethyl-6,7,8,9-tetrahydro-pyrimido[1,2-a]-pyrimidin-4-one]: the pIC50 was more than 8.00.

Turning to `C[C@@H]1COCCN1c1cc(=O)n2c(n1)N(CC(=O)N(C)C)[C@H](C(F)(F)F)CC2` [Example 222, N,N-Dimethyl-2-[(S)-8-((R)-3-methyl-morpholin-4-yl)-6-oxo-2-trifluoromethyl-3,4-dihydro-2H,6H-pyrimido[1,2-a]-pyrimidin-1-yl]-acetamide], the pIC50 was 7.00 to 8.00.

In the case of `CNC(=O)CN1c2nc(N3CCOC[C@H]3C)cc(=O)n2CC[C@H]1C(F)(F)F` [Example 223, N-Methyl-2-[(S)-8-((R)-3-methylmorpholin-4-yl)-6-oxo-2-trifluoromethyl-3,4-dihydro-2H,6H-pyrimido[1,2-a]-pyrimidin-1-yl]-acetamide], the negative logarithm of the IC50 (pIC50) is 7.00 to 8.00.

Take `C[C@@H]1COCCN1c1cc(=O)n2c(n1)N(Cc1cccc(F)n1)[C@H](C(F)(F)F)CC2` [Example 224, (S)-9-(6-Fluoropyridin-2-ylmethyl)-2-((R)-3-methylmorpholin-4-yl)-8-trifluoromethyl-6,7,8,9-tetrahydro-pyrimido[1,2-a]-pyrimidin-4-one]: the pIC50 is more than 8.00.

For the molecule `CC(C)Oc1cc(CN2c3nc(N4CCOC[C@H]4C)cc(=O)n3CC[C@H]2C(F)(F)F)ccn1` [Example 225, (S)-9-(2-Isopropoxy-pyridin-4-ylmethyl)-2-((R)-3-methyl-morpholin-4-yl)-8-trifluoromethyl-6,7,8,9-tetrahydro-pyrimido[1,2-a]-pyrimidin-4-one], the negative-log IC50 (pIC50) was more than 8.00.
